Eight molecules from ChEMBL document CHEMBL1149986, “Topical antiinflammatory dehydroabietylamine derivatives. IV” (Bioorg Med Chem Lett, 1993) can be followed below.

Bounds are passed on as bounds.

Test [1] deals with Mus musculus. Put plainly: Tested for its antiinflammatory activity in the A-23187 (calcium ionophore) ear edema model. The class given is functional.
Test [2] deals with Mus musculus. Put plainly: Tested for its antiinflammatory activity in the contact sensitive (CS) ear edema model. Format: functional.
Test [3] addresses Phospholipase A2, major isoenzyme (Sus scrofa, UniProt P00592). The test is described as follows: Tested for its inhibitory activity against Phospholipase A2 (PLA2). Set-up: species or system Mus musculus.
In test [4] the target is T1, Polyunsaturated fatty acid 5-lipoxygenase (Rattus norvegicus, UniProt P12527).
T1 sequence (P12527 whole entry): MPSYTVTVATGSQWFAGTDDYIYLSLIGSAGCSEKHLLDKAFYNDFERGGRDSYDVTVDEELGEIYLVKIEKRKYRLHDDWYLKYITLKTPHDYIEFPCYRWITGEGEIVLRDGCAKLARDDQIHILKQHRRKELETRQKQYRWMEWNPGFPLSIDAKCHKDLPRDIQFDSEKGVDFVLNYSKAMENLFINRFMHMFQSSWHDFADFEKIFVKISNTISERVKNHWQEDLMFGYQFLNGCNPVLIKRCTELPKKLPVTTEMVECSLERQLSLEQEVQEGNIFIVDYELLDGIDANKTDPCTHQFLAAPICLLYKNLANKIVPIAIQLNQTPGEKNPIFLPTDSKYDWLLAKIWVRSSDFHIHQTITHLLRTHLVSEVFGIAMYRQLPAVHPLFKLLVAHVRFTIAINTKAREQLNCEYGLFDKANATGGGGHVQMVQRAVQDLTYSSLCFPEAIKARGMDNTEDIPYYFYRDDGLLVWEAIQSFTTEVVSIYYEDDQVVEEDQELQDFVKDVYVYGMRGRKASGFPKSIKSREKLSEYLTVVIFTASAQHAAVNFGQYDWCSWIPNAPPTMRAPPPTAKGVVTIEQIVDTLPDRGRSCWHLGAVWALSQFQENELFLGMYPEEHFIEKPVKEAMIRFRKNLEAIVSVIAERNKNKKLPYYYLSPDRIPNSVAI
The test is described as follows: Tested for its inhibitory activity against 5-lipoxygenase.

Test [5] has as its system Mus musculus. The test is described as follows: Tested for its antiinflammatory activity in the arachidonic acid(AA) induced ear edema model. The class given is functional.
In test [6] the test system is Mus musculus. The test is described as follows: Tested for its antiinflammatory activity in the tetradecanoyl phorbol acetate induced ear edema model (TPA Ear). The class given is functional.
The target in the next test is T2, Cyclooxygenase (Bos taurus, UniProt O62664+O62698).
T2 sequence (O62664 whole entry): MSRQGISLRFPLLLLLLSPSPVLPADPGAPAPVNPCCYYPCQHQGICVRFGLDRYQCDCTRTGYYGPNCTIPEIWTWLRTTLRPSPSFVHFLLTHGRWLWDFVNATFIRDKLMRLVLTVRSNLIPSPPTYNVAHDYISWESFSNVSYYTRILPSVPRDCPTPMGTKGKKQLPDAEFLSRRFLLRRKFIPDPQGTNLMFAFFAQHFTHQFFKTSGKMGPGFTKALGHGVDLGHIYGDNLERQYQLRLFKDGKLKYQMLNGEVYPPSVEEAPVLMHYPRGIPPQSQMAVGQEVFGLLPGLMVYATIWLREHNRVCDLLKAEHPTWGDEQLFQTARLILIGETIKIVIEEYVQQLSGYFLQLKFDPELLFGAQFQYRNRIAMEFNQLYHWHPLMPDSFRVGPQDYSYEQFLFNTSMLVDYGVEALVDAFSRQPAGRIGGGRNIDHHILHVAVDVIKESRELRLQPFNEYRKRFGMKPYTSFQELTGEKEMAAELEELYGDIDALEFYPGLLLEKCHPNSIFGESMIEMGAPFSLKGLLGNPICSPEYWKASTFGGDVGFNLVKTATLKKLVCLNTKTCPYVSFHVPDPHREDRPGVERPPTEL
T2 sequence (O62698 whole entry): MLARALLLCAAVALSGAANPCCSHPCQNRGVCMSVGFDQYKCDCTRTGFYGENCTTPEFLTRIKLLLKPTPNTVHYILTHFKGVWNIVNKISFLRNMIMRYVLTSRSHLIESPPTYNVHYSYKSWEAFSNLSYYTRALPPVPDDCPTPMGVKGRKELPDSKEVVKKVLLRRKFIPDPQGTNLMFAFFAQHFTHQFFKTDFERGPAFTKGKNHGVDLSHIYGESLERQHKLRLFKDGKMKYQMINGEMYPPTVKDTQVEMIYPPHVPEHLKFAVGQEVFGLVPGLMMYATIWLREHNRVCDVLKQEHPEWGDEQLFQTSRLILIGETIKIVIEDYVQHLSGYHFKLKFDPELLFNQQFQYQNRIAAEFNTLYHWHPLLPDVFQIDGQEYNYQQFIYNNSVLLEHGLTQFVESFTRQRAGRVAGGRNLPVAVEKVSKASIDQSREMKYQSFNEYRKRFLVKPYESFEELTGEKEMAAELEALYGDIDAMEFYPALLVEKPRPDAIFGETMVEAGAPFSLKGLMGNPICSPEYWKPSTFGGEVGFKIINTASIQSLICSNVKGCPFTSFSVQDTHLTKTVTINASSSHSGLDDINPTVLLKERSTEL
The test is described as follows: Tested for its inhibitory activity against PGS (prostaglandin synthetase). The class given is protein assay.

Sequence of Phospholipase A2, major isoenzyme (P00592 whole entry): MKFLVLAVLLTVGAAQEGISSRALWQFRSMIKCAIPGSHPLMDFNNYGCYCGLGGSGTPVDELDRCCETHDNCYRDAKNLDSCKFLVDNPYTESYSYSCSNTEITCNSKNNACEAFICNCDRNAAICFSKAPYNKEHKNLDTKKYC

A word on the IC50: it is the concentration needed to halve the response being measured. Turning to `C[C@@H]1C[C@H]2[C@@H]3CCC4=CC(=O)C=C[C@]4(C)[C@@]3(F)[C@@H](O)C[C@]2(C)[C@@]1(O)C(=O)CO` [DEXAMETHASONE], the figures for the ED50 in the test on Mus musculus [1], in the test with Mus musculus [2] and with Mus musculus [5] were 0.5 ug ear-1, 0.7 ug ear-1 and greater than 100 ug ear-1, respectively. Also, the IC50 is greater than 750 µM in test [3] and 120 µM in test [4].
`CCN(CC)CCCC(C)Nc1c2ccc(Cl)cc2nc2ccc(OC)cc12` (stereo unspecified) [QUINACRINE]: the ED50 in the test with Mus musculus [1], in the test with Mus musculus [6] and in the test on Mus musculus [5] was greater than 100 ug ear-1 throughout. Besides, the IC50 in test [3] came to 100 µM; at Cyclooxygenase it was 32.6 µM.
As to `CC(C)c1ccc2c(c1)CC[C@H]1C(C)(CN)CCC[C@]21C.Cl` (stereo partly specified), the ED50 with Mus musculus [2] was 19.8 ug ear-1; in the test on Mus musculus [6], 130.7 ug ear-1; with Mus musculus [5] it was greater than 100 ug ear-1. Moreover, the IC50 in test [3] was determined as 21 µM; in test [4], 8 µM; at Cyclooxygenase, 71 µM.
Take `CC(N)CCCNC[C@]1(C)CCC[C@]2(C)c3ccc(C(C)C)cc3CCC12.Cl.Cl` (stereo partly specified): the ED50 in the test with Mus musculus [1] was greater than 200 ug ear-1; in the test with Mus musculus [2] it was greater than 100 ug ear-1; in the test with Mus musculus [6], 18.8 ug ear-1; in the test on Mus musculus [5], 100 ug ear-1. In addition, the IC50 was found to be 5.4 µM in test [3], 1.2 µM in test [4] and 390 µM at Cyclooxygenase.
With `COc1ccc2c(c1)c(CC(=O)O)c(C)n2C(=O)c1ccc(Cl)cc1` [INDOMETHACIN], the ED50 in the test on Mus musculus [1] amounted to 254 ug ear-1; with Mus musculus [5], 1000 ug ear-1. The molecule further returned an IC50 in test [4] greater than 250 µM.
For `CC(C)c1ccc2c(c1)CCC1[C@](C)(CNCC3CCCN3)CCC[C@]21C.Cl.Cl` (stereo partly specified), the ED50 in the test with Mus musculus [1] is reported as 200 ug ear-1; with Mus musculus [2] it was 90 ug ear-1; in the test with Mus musculus [6] it was 18 ug ear-1; with Mus musculus [5] it was greater than 100 ug ear-1. For the same molecule, the IC50 stood at 28 µM in test [3] and 62 µM on Cyclooxygenase.
In the case of `CC(=O)NC(CCN(C[C@]1(C)CCC[C@]2(C)c3ccc(C(C)C)cc3CCC12)C(C)=O)c1ccc(F)cc1` (stereo partly specified), the ED50 is on record as 84.7 ug ear-1 in the test on Mus musculus [1], greater than 100 ug ear-1 in the test with Mus musculus [2], 10 ug ear-1 with Mus musculus [6] and greater than 100 ug ear-1 in the test on Mus musculus [5]. Besides, the IC50 was 90.5 µM in test [3], greater than 25 µM in test [4] and 124 µM against Cyclooxygenase.
In the case of `CC(C)c1ccc2c(c1)CCC1[C@](C)(CNCc3ccccc3C(=O)O)CCC[C@]21C.Cl` (stereo partly specified), the ED50 in the test on Mus musculus [1] is listed as 64.1 ug ear-1; in the test with Mus musculus [2] it was greater than 100 ug ear-1; in the test on Mus musculus [6], 16 ug ear-1; with Mus musculus [5] it was greater than 100 ug ear-1. Besides, the values for the IC50 (in test [3]; in test [4]; against Cyclooxygenase) were 34.5 µM, greater than 25 µM and 220 µM, respectively.
